Legend:
Format in all cases: in vivo
[1] = system: blackgrass (Alopecurus myosuroides); experiment: Test A postemergence; conditions: Alopecurus myosuroides, post-emergence, 240 h, postemergence
How it was run: (§1)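 In a loam soil and sand blend, planted seeds got a preemergence directed soil spray, and young plants at the one- to two-leaf stage, 2–10 cm high, got a postemergence application; ~10 d greenhouse hold; injury rated visually, 0 = none, 100 = complete control.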

[2] = system: ryegrass, Italian (Italian ryegrass, Lolium multiflorum); experiment: Test A postemergence; conditions: Lolium multiflorum, post-emergence, 240 h, postemergence
How it was run: as §1

Kochia (Kochia scoparia) [3] = experiment: Test A postemergence; conditions: Bassia scoparia, post-emergence, 240 h, postemergence
How it was run: as §1

[4] = system: ragweed (common ragweed, Ambrosia elatior); experiment: Test A postemergence; conditions: Ambrosia artemisiifolia, post-emergence, 240 h, postemergence
How it was run: as §1

[5] = system: wheat (Triticum aestivum); experiment: Test A postemergence; conditions: Triticum aestivum, post-emergence, 240 h, postemergence
How it was run: as §1

[6] = system: pigweed (Amaranthus retroflexus); experiment: Test A postemergence; conditions: Amaranthus retroflexus, post-emergence, 240 h, postemergence
How it was run: as §1

[7] = system: barnyardgrass (Echinochloa crus-galli); experiment: Test A postemergence; conditions: Echinochloa crus-galli, post-emergence, 240 h, postemergence
How it was run: as §1

corn (Zea mays) = experiment: Test A postemergence; conditions: Zea mays, post-emergence, 240 h, postemergence
How it was run: as §1

[8] = system: Galium (catchweed bedstraw, Galium aparine); experiment: Test A postemergence; conditions: Galium, post-emergence, 240 h, postemergence
How it was run: as §1

[9] = system: giant foxtail (Setaria faberii); experiment: Test A postemergence; conditions: Setaria faberi, post-emergence, 240 h, postemergence
How it was run: as §1

[10] = system: ryegrass, Italian (Italian ryegrass, Lolium multiflorum); experiment: Test A preemergence; conditions: Lolium multiflorum, pre-emergence, 240 h, preemergence, 0 to 100 scale where 0 is no effect and 100 is complete control, read-out: Ryegrass, Italian plant response rating
How it was run: as §1

Kochia (Kochia scoparia) [11] = experiment: Test A preemergence; conditions: Bassia scoparia, pre-emergence, 240 h, preemergence, 0 to 100 scale where 0 is no effect and 100 is complete control, read-out: Kochia plant response rating
How it was run: as §1

[12] = system: ragweed (common ragweed, Ambrosia elatior); experiment: Test A preemergence; conditions: Ambrosia artemisiifolia, pre-emergence, 240 h, preemergence, 0 to 100 scale where 0 is no effect and 100 is complete control, read-out: Ragweed plant response rating
How it was run: as §1

[13] = system: pigweed (Amaranthus retroflexus); experiment: Test A preemergence; conditions: Amaranthus retroflexus, pre-emergence, 240 h, preemergence, 0 to 100 scale where 0 is no effect and 100 is complete control, read-out: Pigweed plant response rating
[14] = system: barnyardgrass (Echinochloa crus-galli); experiment: Test A preemergence; conditions: Echinochloa crus-galli, pre-emergence, 240 h, preemergence, 0 to 100 scale where 0 is no effect and 100 is complete control, read-out: Barnyardgrass plant response rating
How it was run: as §1

[15] = system: giant foxtail (Setaria faberii); experiment: Test A preemergence; conditions: Setaria faberi, pre-emergence, 240 h, preemergence, 0 to 100 scale where 0 is no effect and 100 is complete control, read-out: Foxtail, Giant plant response rating
How it was run: as §1

[16] = 125 g ai/ha, visual injury rating, approximately 10 d

CN1CC[C@H](c2ccc(C(F)(F)F)cc2)[C@@H](C(=O)Nc2cccc(Cl)c2F)C1=O [Compound 1228]
pest or weed control at 125 g/ha ([1]; 125 g ai/ha, visual injury vs untreated controls after approx. 10 d, 0 = no effect, 100 = complete control, read-out: Blackgrass plant response rating (0 to 100 scale)): 0%
pest or weed control at 500 g/ha ([1]; 500 g ai/ha, 0 to 100 scale, 0 is no effect, 100 is complete control, read-out: Blackgrass plant response rating): 40%
pest or weed control at 125 g/ha ([2]; 125 g ai/ha, visual injury vs untreated controls after approx. 10 d, 0 = no effect, 100 = complete control, read-out: Ryegrass, Italian plant response rating (0 to 100 scale)): 0%
pest or weed control at 500 g/ha ([2]; 500 g ai/ha, 0 to 100 scale, 0 is no effect, 100 is complete control, read-out: Ryegrass, Italian plant response rating): 30%
pest or weed control at 125 g/ha (Kochia (Kochia scoparia) [3]; 125 g ai/ha, visual injury vs untreated controls after approx. 10 d, 0 = no effect, 100 = complete control, read-out: Kochia plant response rating (0 to 100 scale)): 60%
pest or weed control at 500 g/ha (Kochia (Kochia scoparia) [3]; 500 g ai/ha, 0 to 100 scale, 0 is no effect, 100 is complete control, read-out: Kochia plant response rating): 60%
pest or weed control at 125 g/ha ([4]; 125 g ai/ha, visual injury vs untreated controls after approx. 10 d, 0 = no effect, 100 = complete control, read-out: Ragweed plant response rating (0 to 100 scale)): 0%
pest or weed control at 500 g/ha ([4]; 500 g ai/ha, 0 to 100 scale, 0 is no effect, 100 is complete control, read-out: Ragweed plant response rating): 0%
plant injury at 125 g/ha ([5]; 125 g ai/ha, visual injury vs untreated controls after approx. 10 d, 0 = no effect, 100 = complete control, read-out: Wheat plant response rating (0 to 100 scale)): 0%
plant injury at 500 g/ha ([5]; 500 g ai/ha, 0 to 100 scale, 0 is no effect, 100 is complete control, read-out: Wheat plant response rating): 30%
pest or weed control at 125 g/ha ([6]; 125 g ai/ha, visual injury vs untreated controls after approx. 10 d, 0 = no effect, 100 = complete control, read-out: Pigweed plant response rating (0 to 100 scale)): 20%
pest or weed control at 500 g/ha ([6]; 500 g ai/ha, 0 to 100 scale, 0 is no effect, 100 is complete control, read-out: Pigweed plant response rating): 50%
pest or weed control at 125 g/ha ([7]; 125 g ai/ha, visual injury vs untreated controls after approx. 10 d, 0 = no effect, 100 = complete control, read-out: Barnyardgrass plant response rating (0 to 100 scale)): 90%
pest or weed control at 500 g/ha ([7]; 500 g ai/ha, 0 to 100 scale, 0 is no effect, 100 is complete control, read-out: Barnyardgrass plant response rating): 90%
plant injury at 125 g/ha (corn (Zea mays); 125 g ai/ha, visual injury vs untreated controls after approx. 10 d, 0 = no effect, 100 = complete control, read-out: Corn plant response rating (0 to 100 scale)): 20%
plant injury at 500 g/ha (corn (Zea mays); 500 g ai/ha, 0 to 100 scale, 0 is no effect, 100 is complete control, read-out: Corn plant response rating): 70%
pest or weed control at 125 g/ha ([8]; 125 g ai/ha, visual injury vs untreated controls after approx. 10 d, 0 = no effect, 100 = complete control, read-out: Galium plant response rating (0 to 100 scale)): 20%
pest or weed control at 500 g/ha ([8]; 500 g ai/ha, 0 to 100 scale, 0 is no effect, 100 is complete control, read-out: Galium plant response rating): 60%
pest or weed control at 125 g/ha ([9]; 125 g ai/ha, visual injury vs untreated controls after approx. 10 d, 0 = no effect, 100 = complete control, read-out: Foxtail, Giant plant response rating (0 to 100 scale)): 80%
pest or weed control at 500 g/ha ([9]; 500 g ai/ha, 0 to 100 scale, 0 is no effect, 100 is complete control, read-out: Foxtail, Giant plant response rating): 80%
pest or weed control at 125 g/ha [10, 16]: 30%
pest or weed control at 500 g/ha ([10]; 500 g ai/ha): 60%
pest or weed control at 125 g/ha (Kochia (Kochia scoparia) [11]; [16]): 0%
pest or weed control at 500 g/ha (Kochia (Kochia scoparia) [11]; 500 g ai/ha): 0%
pest or weed control at 125 g/ha [12, 16]: 0%
pest or weed control at 500 g/ha ([12]; 500 g ai/ha): 0%
pest or weed control at 125 g/ha [13, 16]: 20%
pest or weed control at 500 g/ha ([13]; 500 g ai/ha): 60%
pest or weed control at 125 g/ha [14, 16]: 90%
pest or weed control at 500 g/ha ([14]; 500 g ai/ha): 90%
pest or weed control at 125 g/ha [15, 16]: 90%
pest or weed control at 500 g/ha ([15]; 500 g ai/ha): 90%

— US12077503B2, “Substituted cyclic amides and their use as herbicides” (FMC CORPORATION, priority 2015, dated 2024)
